Data from patent US9321764B2, “Dihydro-pyrrolopyridinone inhibitors” (AbbVie Inc., priority 2013, dated 2016).
pKi: −log10 of the molar value.

Key:
[1] = target: T1, BRD4 (BDI_K57-E168) (Homo sapiens, UniProt O60885); test: TR-FRET bromodomain binding assay, first bromodomain of BRD4; details: His-tagged BD1, 100 nM Alexa647 probe; TR-FRET protocol A-E given per row
T1 construct: BD1: amino acids K57-E168; made in house
Procedure: (§1) A time-resolved fluorescence resonance energy transfer (TR-FRET) assay was used to determine the affinities of compounds of the Examples listed in Table 1 for each bromodomain of BRD4. His-tagged first (BD1: amino acids K57-E168) and second (BD2: amino acids E352-E168) bromodomains of BRD4 were expressed and purified. An Alexa647-labeled BET-inhibitor was used as the fluorescent probe in the assay.
(§2) Compound dilution series were prepared in DMSO via an approximately 3-fold serial dilution from one of the following:
Assay method A: 250 μM-4.2 nM
Assay method B: 0.47 mM to 7.8 nM
Assay method C: 500 μM-8.5 nM
(§3) Assay method D: 2.5 mM-800 nM
Assay method E: 0.047 mM to 0.78 nM or 5-fold serial dilution from Assay method D
For Assay methods A, C, and D: Compounds were then diluted 6:100 in assay buffer (20 mM Sodium Phosphate, pH 6.0, 50 mM NaCl, 1 mM Ethylenediaminetetraacetic acid, 0.01% Triton X-100, 1 mM DL-Dithiothreitol) to yield 3× working solutions. Six microliters (μL) of the working solution was then transferred to white, low-volume assay plates (Costar #3673). A 1.5× assay mixture containing His-tagged bromodomain, Europium-conjugated anti-His antibody (Invitrogen PV5596) and the Alexa-647-conjugated probe molecule was also prepared. Twelve μL of this solution were added to the assay plate to reach a final volume of 18 μL.
For Assay methods B and E: Compound dilutions were added directly into white, low-volume assay plates (Perkin Elmer Proxiplate 384 Plus #6008280) using a Labcyte Echo in conjunction with Labcyte Access and Thermo Multidrop CombinL robotics. Compounds were then suspended in eight microliters (μL) of assay buffer (20 mM Sodium Phosphate, pH 6.0, 50 mM NaCl, 1 mM Ethylenediaminetetraacetic acid disodium salt dihydrate, 0.01% Triton X-100, 1 mM DL-Dithiothreitol) containing His-tagged bromodomain, Europium-conjugated anti-His antibody (Invitrogen PV5596) and Alexa-647-conjugated probe.
The final concentration of 1× assay mixture for assay methods A, B, C, D, and E contains 2% DMSO, 8 nM His-tagged bromodomain, 1 nM Europium-conjugated anti-His-tag antibody and 100 nM or 30 nM probe (for BDI or BDII, respectively) and compound concentration in the range of: 5 μM-85 pM for method A, 9.19 μM 150 pM for method B, 10 μM-169 pM for method C, 50 μM-16 nM for method D, and 0.92 μM-15 pM for method E.
After a one-hour equilibration at room temperature, TR-FRET ratios were determined using an Envision multilabel plate reader (Ex 340, Em 495/520).
TR-FRET data were normalized to the means of 24 no-compound controls (“high”) and 8 controls containing 1 μM un-labeled probe (“low”). Percent inhibition was plotted as a function of compound concentration and the data were fit with the 4 parameter logistic equation to obtain IC50s Inhibition constants (Ki) were calculated from the IC50s, probe Kd and probe concentration. Typical Z′ values were between 0.65 and 0.75. The minimum significant ratio was determined to evaluate assay reproducibility (Eastwood et al., (2006) J Biomol Screen, 11: 253-261). The MSR was determined to be 2.03 for BDI and 1.93 for BDII, and a moving MSR (last six run MSR overtime) for both BDI and BDII was typically <3.

[2] = target: T2, BRD4 (BDII_E352-M457) (Homo sapiens, UniProt O60885); test: TR-FRET bromodomain binding assay, second bromodomain of BRD4; details: His-tagged BD2, 30 nM Alexa647 probe; TR-FRET protocol A-E given per row
T2 construct: proliferation; Protocol; made in house
Procedure: as §1, §2, §3
For Assay methods A, C, and D: Compounds were then diluted 6:100 in assay buffer (20 mM Sodium Phosphate, pH 6.0, 50 mM NaCl, 1 mM Ethylenediaminetetraacetic acid, 0.01% Triton X-100, 1 mM DL-Dithiothreitol) to yield 3× working solutions. […] Twelve μL of this solution were added to the assay plate to reach a final volume of 18 μL.
TR-FRET data were normalized to the means of 24 no-compound controls (“high”) and 8 controls containing 1 μM un-labeled probe (“low”). Percent inhibition was plotted as a function of compound concentration and the data were fit with the 4 parameter logistic equation to obtain IC50s Inhibition constants (Ki) were calculated from the IC50s, probe Kd and probe concentration. Typical Z′ values were between 0.65 and 0.75.

pKi [1]	pKi [2]	Compound
7.11	7.19	CCS(=O)(=O)c1ccc(Oc2ccc(Cl)c(Cl)c2)c(-c2cn(C)c3c(=O)[nH]ccc23)c1 [Example 76, 3-[2-(3,4-dichlorophenoxy)-5-(ethylsulfonyl)phenyl]-1-methyl-1,6-dihydro-7H-pyrrolo[2,3-c]pyridin-7-one]
7.21	6.86	CCS(=O)(=O)c1ccc(Oc2ccc(C(F)(F)F)cc2)c(-c2cn(C)c3c(=O)[nH]ccc23)c1 [Example 77, 3-{5-(ethylsulfonyl)-2-[4-(trifluoromethyl)phenoxy]phenyl}-1-methyl-1,6-dihydro-7H-pyrrolo[2,3-c]pyridin-7-one]
6.82	7.08	CCc1cc(Oc2ccc(S(=O)(=O)CC)cc2-c2cn(C)c3c(=O)[nH]ccc23)ccc1Cl [Example 79, 3-[2-(4-chloro-3-ethylphenoxy)-5-(ethylsulfonyl)phenyl]-1-methyl-1,6-dihydro-7H-pyrrolo[2,3-c]pyridin-7-one]
7.25	7.28	CCS(=O)(=O)c1ccc(Oc2ccc(C#N)cc2OC)c(-c2cn(C)c3c(=O)[nH]ccc23)c1 [Example 80, 4-[4-(ethylsulfonyl)-2-(1-methyl-7-oxo-6,7-dihydro-1H-pyrrolo[2,3-c]pyridin-3-yl)phenoxy]-3-methoxybenzonitrile]
7.09	7.00	CCS(=O)(=O)c1ccc(Oc2cccnc2)c(-c2cn(C)c3c(=O)[nH]ccc23)c1 [Example 81, 3-[5-(ethylsulfonyl)-2-(pyridin-3-yloxy)phenyl]-1-methyl-1,6-dihydro-7H-pyrrolo[2,3-c]pyridin-7-one]
7.18	7.31	CCS(=O)(=O)c1ccc(Oc2ccc(Cl)cc2Cl)c(-c2cn(C)c3c(=O)[nH]ccc23)c1 [Example 82, 3-[2-(2,4-dichlorophenoxy)-5-(ethylsulfonyl)phenyl]-1-methyl-1,6-dihydro-7H-pyrrolo[2,3-c]pyridin-7-one]
7.26	7.60	CCS(=O)(=O)c1ccc(Oc2cccc(Cl)c2Cl)c(-c2cn(C)c3c(=O)[nH]ccc23)c1 [Example 84, 3-[2-(2,3-dichlorophenoxy)-5-(ethylsulfonyl)phenyl]-1-methyl-1,6-dihydro-7H-pyrrolo[2,3-c]pyridin-7-one]
7.36	7.77	CCS(=O)(=O)c1ccc(Oc2ccc(OC)cc2Cl)c(-c2cn(C)c3c(=O)[nH]ccc23)c1 [Example 85, 3-[2-(2-chloro-4-methoxyphenoxy)-5-(ethylsulfonyl)phenyl]-1-methyl-1,6-dihydro-7H-pyrrolo[2,3-c]pyridin-7-one]
6.16	6.12	CCS(=O)(=O)c1ccc(Oc2cncc(C)n2)c(-c2cn(C)c3c(=O)[nH]ccc23)c1 [Example 86, 3-{5-(ethylsulfonyl)-2-[(6-methylpyrazin-2-yl)oxy]phenyl}-1-methyl-1,6-dihydro-7H-pyrrolo[2,3-c]pyridin-7-one]
6.54	6.13	CCS(=O)(=O)c1ccc(Oc2cncnc2)c(-c2cn(C)c3c(=O)[nH]ccc23)c1 [Example 88, 3-[5-(ethylsulfonyl)-2-(pyrimidin-5-yloxy)phenyl]-1-methyl-1,6-dihydro-7H-pyrrolo[2,3-c]pyridin-7-one]
6.32	6.21	Cn1cc(-c2cc(CS(C)(=O)=O)ccc2Oc2ccc(F)cc2F)c2cc(-c3cc(CS(C)(=O)=O)ccc3Oc3ccc(F)cc3F)[nH]c(=O)c21 [Example 93, 3,5-bis{2-(2,4-difluorophenoxy)-5-[(methylsulfonyl)methyl]phenyl}-1-methyl-1,6-dihydro-7H-pyrrolo[2,3-c]pyridin-7-one]
6.77	5.73	Cc1noc(C)c1-c1cc2c(-c3cc(CS(C)(=O)=O)ccc3Oc3ccc(F)cc3F)cn(C)c2c(=O)[nH]1 [Example 94, 3-{2-(2,4-difluorophenoxy)-5-[(methylsulfonyl)methyl]phenyl}-5-(3,5-dimethyl-1,2-oxazol-4-yl)-1-methyl-1,6-dihydro-7H-pyrrolo[2,3-c]pyridin-7-one]
6.00	5.69	Cn1cc(-c2c(OCC3CC3)ccc3cc[nH]c23)c2cc[nH]c(=O)c21 [Example 98, 3-[6-(cyclopropylmethoxy)-1H-indol-7-yl]-1-methyl-1,6-dihydro-7H-pyrrolo[2,3-c]pyridin-7-one]
< 5.62	5.61	CCOC(=O)c1cc2c(-c3cn(C)c4c(=O)[nH]ccc34)c(OCC3CC3)ccc2[nH]1 [Example 99, ethyl 5-(cyclopropylmethoxy)-4-(1-methyl-7-oxo-6,7-dihydro-1H-pyrrolo[2,3-c]pyridin-3-yl)-1H-indole-2-carboxylate]
< 5.62	6.39	CNC(=O)c1cc2c(-c3cn(C)c4c(=O)[nH]ccc34)c(OCC3CC3)ccc2[nH]1 [Example 107, 5-(cyclopropylmethoxy)-N-methyl-4-(1-methyl-7-oxo-6,7-dihydro-1H-pyrrolo[2,3-c]pyridin-3-yl)-1H-indole-2-carboxamide]
5.98	5.98	Cn1cc(-c2cc(CNC3CCNCC3)ccc2Oc2ccc(F)cc2F)c2cc[nH]c(=O)c21 [Example 112, 3-{2-(2,4-difluorophenoxy)-5-[(piperidin-4-ylamino)methyl]phenyl}-1-methyl-1,6-dihydro-7H-pyrrolo[2,3-c]pyridin-7-one]
6.11	6.12	CC(C)CCNCc1ccc(Oc2ccc(F)cc2F)c(-c2cn(C)c3c(=O)[nH]ccc23)c1 [Example 117, 3-[2-(2,4-difluorophenoxy)-5-{[(3-methylbutyl)amino]methyl}phenyl]-1-methyl-1,6-dihydro-7H-pyrrolo[2,3-c]pyridin-7-one]
6.89	6.37	Cc1c[nH]c(=O)c2c1c(-c1cc(S(C)(=O)=O)ccc1Oc1ccc(F)cc1F)cn2C [Example 123, 3-[2-(2,4-difluorophenoxy)-5-(methylsulfonyl)phenyl]-1,4-dimethyl-1,6-dihydro-7H-pyrrolo[2,3-c]pyridin-7-one]
6.90	6.98	Cc1c[nH]c(=O)c2c1c(-c1cc(S(C)(=O)=O)ccc1OCCC1CC1)cn2C [Example 124, 3-[2-(2-cyclopropylethoxy)-5-(methylsulfonyl)phenyl]-1,4-dimethyl-1,6-dihydro-7H-pyrrolo[2,3-c]pyridin-7-one]
5.94	5.92	Cn1cc(-c2cc(CN3CCC(C(F)(F)F)CC3)ccc2Oc2ccc(F)cc2F)c2cc[nH]c(=O)c21 [Example 129, 3-[2-(2,4-difluorophenoxy)-5-{[4-(trifluoromethyl)piperidin-1-yl]methyl]phenyl}-1-methyl-1,6-dihydro-7H-pyrrolo[2,3-c]pyridin-7-one]
5.96	5.88	Cn1cc(-c2cc(CN)ccc2Oc2ccc(F)cc2F)c2cc[nH]c(=O)c21 [Example 136, 3-[5-(aminomethyl)-2-(2,4-difluorophenoxy)phenyl]-1-methyl-1,6-dihydro-7H-pyrrolo[2,3-c]pyridin-7-one]
